Reference: ChEMBL document CHEMBL1126278, “New neplanocin analogues. 1. Synthesis of 6'-modified neplanocin A derivatives as broad-spectrum antiviral agents” (J Med Chem, 1992)
In brackets after ≈: the same amount, converted by molar mass.

What was measured:
HEL [1] = assay: Inhibitory effect on replication of DNA virus CMV (AD-169) on HEL cell line.; assay type: functional, cell-based; settings: Homo sapiens
HEL [2] = assay: Inhibitory effect on replication of DNA virus CMV (Davis) on HEL cell line.; assay type: functional, cell-based; settings: Homo sapiens
HEL [3] = assay: Inhibitory effect on replication of DNA virus TK-VZV (07-1) on HEL cell line.; assay type: functional, cell-based; settings: Homo sapiens
HEL [4] = assay: Inhibitory effect on replication of DNA virus TK-VZV (YSR) on HEL cell line.; assay type: functional, cell-based; settings: Homo sapiens
HEL [5] = assay: Inhibitory effect on replication of DNA virus VZV (Oka) on HEL cell line.; assay type: functional, cell-based; settings: Homo sapiens
HEL [6] = assay: Inhibitory effect on replication of DNA virus VZV (YS) on HEL cell line.; assay type: functional, cell-based; settings: Homo sapiens
HeLa [7] = assay: Inhibitory effect on replication of RNA virus coxsB-4 in HeLa cell line.; assay type: functional, cell-based; settings: Homo sapiens
HeLa [8] = assay: Inhibitory effect on replication of RNA virus RSV in HeLa cell line; assay type: functional, cell-based; settings: Homo sapiens
HeLa [9] = assay: Inhibitory effect on replication of RNA virus VSV in HeLa cell line.; assay type: functional, cell-based; settings: Homo sapiens
HeLa [10] = assay: Inhibitory effect on replication of RNA virus cell morphology in HeLa cell line.; assay type: functional, cell-based; settings: Homo sapiens
MDCK [11] = assay: Inhibitory effect on replication of RNA virus cell morphology in MDCK cell line.; assay type: functional, cell-based; settings: Canis lupus familiaris
MT4 [12] = assay: Inhibitory effect on replication of RNA virus HIV-1 in MT-4 cell line.; assay type: functional, cell-based; settings: Homo sapiens
MT4 [13] = assay: Inhibitory effect on replication of RNA virus HIV-2 in MT-4 cell line.; assay type: functional, cell-based; settings: Homo sapiens
MT4 [14] = assay: Inhibitory effect on replication of RNA virus cell growth in MT-4 cell line.; assay type: functional, cell-based; settings: Homo sapiens
PRK [15] = assay: Inhibitory effect on replication of DNA virus Cell morphology on PRK cell line; assay type: functional, cell-based; settings: Oryctolagus cuniculus
PRK [16] = assay: Inhibitory effect on replication of DNA virus VV on PRK cell line.; assay type: functional, cell-based; settings: Oryctolagus cuniculus
[17] = Inhibitory effect on replication of DNA virus HSV-1 (KOS) in PRK cell line.; assay type: functional, cell-based; settings: Oryctolagus cuniculus
[18] = Inhibitory effect on replication of DNA virus HSV-2 (G) in PRK cell line.; assay type: functional, cell-based; settings: Oryctolagus cuniculus
PRK [19] = assay: Inhibitory effect on replication of RNA virus VSV in PRK cell line.; assay type: functional, cell-based; settings: Oryctolagus cuniculus
PRK [20] = assay: Inhibitory effect on replication of RNA virus cell morphology in PRK cell line.; assay type: functional, cell-based; settings: Oryctolagus cuniculus
Vero [21] = assay: Inhibitory effect on replication of RNA virus coxsB-4 in Vero cell line; assay type: functional, cell-based; settings: Chlorocebus sabaeus
Vero [22] = assay: Inhibitory effect on replication of RNA virus measles on Vero cell line.; assay type: functional, cell-based; settings: Chlorocebus sabaeus
Vero [23] = assay: Inhibitory effect on replication of RNA virus reo-1 in Vero cell line.; assay type: functional, cell-based; settings: Chlorocebus sabaeus
Vero [24] = assay: Inhibitory effect on replication of RNA virus JV in Vero cell line.; assay type: functional, cell-based; settings: Chlorocebus sabaeus
Vero [25] = assay: Inhibitory effect on replication of RNA virus SFV in Vero cell line; assay type: functional, cell-based; settings: Chlorocebus sabaeus
Vero [26] = assay: Inhibitory effect on replication of RNA virus SV in Vero cell line.; assay type: functional, cell-based; settings: Chlorocebus sabaeus
Vero [27] = assay: Inhibitory effect on replication of RNA virus TV in Vero cell line.; assay type: functional, cell-based; settings: Chlorocebus sabaeus
Vero [28] = assay: Inhibitory effect on replication of RNA virus RNA synthesis in Vero cell line.; assay type: functional, cell-based; settings: Chlorocebus sabaeus
Vero [29] = assay: Inhibitory effect on replication of RNA virus cell morphology in Vero cell line.; assay type: functional, cell-based; settings: Chlorocebus sabaeus
Vero [30] = assay: Inhibitory effect on replication of RNA virus protein synthesis in Vero cell line.; assay type: functional, cell-based; settings: Chlorocebus sabaeus
Vero [31] = assay: Inhibitory effect on replication of RNA virus PV-3 in Vero cell line.; assay type: functional, cell-based; settings: Chlorocebus sabaeus
HeLa [32] = assay: cells; settings: Homo sapiens
MDCK [33] = assay: cells; settings: Canis lupus familiaris
MDCK [34] = assay: cells; settings: Canis lupus familiaris; remark: listed apart in the source
ESM [35] = assay: Inhibitory effect on replication of DNA virus Cell morphology on ESM cell line; assay type: functional, cell-based
ESM [36] = assay: Inhibitory effect on replication of DNA virus HSV-1 (KOS) in ESM cell line; assay type: functional, cell-based
ESM [37] = assay: Inhibitory effect on replication of DNA virus HSV-2 (G) in ESM cell line; assay type: functional, cell-based
ESM [38] = assay: Inhibitory effect on replication of DNA virus TK-HSV-1 (B2006) on ESM cell line.; assay type: functional, cell-based
ESM [39] = assay: Inhibitory effect on replication of DNA virus TK-HSV-1 (VMW 1837) on ESM cell line.; assay type: functional, cell-based
ESM [40] = assay: Inhibitory effect on replication of DNA virus VV on ESM cell line.; assay type: functional, cell-based
ESM [41] = assay: Inhibitory effect on replication of RNA virus cell morphology in ESM cell line.; assay type: functional, cell-based
HEL [42] = assay: Inhibitory effect on replication of DNA virus Cell growth on HEL cell line.; assay type: functional, cell-based; settings: Homo sapiens

In the case of `Nc1ncnc2c1ncn2[C@@H]1C=C(CF)[C@@H](O)[C@H]1O`, the IC50 (HEL [1]) is reported as 2.5 µg/mL (≈ 9.43 µM), the IC50 (HEL [2]) is reported as 2.5 µg/mL (≈ 9.43 µM) and the IC50 (HEL [3]) is reported as 20 µg/mL (≈ 75.4 µM). It also gave an IC50 (HEL [4]) of 20 µg/mL (≈ 75.4 µM), an IC50 (HEL [5]) of 70 µg/mL (≈ 264 µM) and an IC50 (HEL [6]) of 150 µg/mL (≈ 566 µM). For the same compound, the IC50 (HeLa [7]) was over 200 µg/mL, the IC50 (HeLa [8]) was 10 µg/mL (≈ 37.7 µM) and the IC50 (HeLa [9]) was 2 µg/mL (≈ 7.54 µM). For the same compound, the IC50 (HeLa [10]) was over 200 µg/mL, the IC50 (MDCK [11]) was over 100 µg/mL and the IC50 (MT4 [12]) was over 1.5 µg/mL. It also gave an IC50 (MT4 [13]) of over 1.5 µg/mL, an IC50 (MT4 [14]) of 3 µg/mL (≈ 11.3 µM) and an IC50 (PRK [15]) of over 400 µg/mL. For the same compound, the IC50 (PRK [16]) was 2 µg/mL (≈ 7.54 µM), the IC50 [17] was over 400 µg/mL and the IC50 [18] was over 400 µg/mL. It also gave an IC50 (PRK [19]) of 0.2 µg/mL (≈ 0.754 µM), an IC50 (PRK [20]) of over 400 µg/mL and an IC50 (Vero [21]) of over 200 µg/mL. It also gave an IC50 (Vero [22]) of 10 µg/mL (≈ 37.7 µM), an IC50 (Vero [23]) of 2 µg/mL (≈ 7.54 µM) and an IC50 (Vero [24]) of 0.4 µg/mL (≈ 1.51 µM). It also gave an IC50 (Vero [25]) of 200 µg/mL (≈ 754 µM), an IC50 (Vero [26]) of 7 µg/mL (≈ 26.4 µM) and an IC50 (Vero [27]) of 0.4 µg/mL (≈ 1.51 µM). It also gave an IC50 (Vero [28]) of 5 µg/mL (≈ 18.9 µM), an IC50 (Vero [29]) of 40 µg/mL (≈ 151 µM) and an IC50 (Vero [30]) of 65 µg/mL (≈ 245 µM). It also gave an IC50 (Vero [31]) of 7 µg/mL (≈ 26.4 µM), an IC50 (HeLa [32]) of over 200 µg/mL and an IC50 (MDCK [33]) of over 100 µg/mL. The IC50 (MDCK [34]) was over 100 µg/mL.
`C[C@H](O)C1=C[C@@H](n2cnc3c(N)ncnc32)[C@H](O)[C@@H]1O` gave an IC50 (ESM [35]) of over 400 µg/mL, an IC50 (ESM [36]) of over 400 µg/mL and an IC50 (ESM [37]) of over 400 µg/mL. For the same compound, the IC50 (ESM [38]) was over 400 µg/mL, the IC50 (ESM [39]) was over 400 µg/mL and the IC50 (ESM [40]) was 40 µg/mL (≈ 144 µM). The IC50 (ESM [41]) was over 400 µg/mL, the IC50 (HEL [1]) was 15 µg/mL (≈ 54.1 µM) and the IC50 (HEL [2]) was 9 µg/mL (≈ 32.5 µM). For the same compound, the IC50 (HEL [42]) was 132 µg/mL (≈ 476 µM), the IC50 (HEL [3]) was 76 µg/mL (≈ 274 µM) and the IC50 (HEL [4]) was 39 µg/mL (≈ 141 µM). It also gave an IC50 (HEL [5]) of 100 µg/mL (≈ 361 µM), an IC50 (HeLa [7]) of over 400 µg/mL and an IC50 (HeLa [8]) of over 100 µg/mL. The IC50 (HeLa [10]) was over 400 µg/mL, the IC50 (MDCK [11]) was over 100 µg/mL and the IC50 (MT4 [12]) was over 100 µg/mL. It also gave an IC50 (MT4 [13]) of over 100 µg/mL, an IC50 (MT4 [14]) of over 100 µg/mL and an IC50 (PRK [15]) of over 400 µg/mL. It also gave an IC50 (PRK [16]) of 70 µg/mL (≈ 252 µM), an IC50 [17] of over 400 µg/mL and an IC50 [18] of over 200 µg/mL. The IC50 (PRK [19]) was 70 µg/mL (≈ 252 µM), the IC50 (PRK [20]) was over 400 µg/mL and the IC50 (Vero [21]) was over 200 µg/mL. For the same compound, the IC50 (Vero [22]) was over 100 µg/mL, the IC50 (Vero [23]) was 40 µg/mL (≈ 144 µM) and the IC50 (Vero [24]) was 45 µg/mL (≈ 162 µM). The IC50 (Vero [25]) was over 400 µg/mL, the IC50 (Vero [26]) was 150 µg/mL (≈ 541 µM) and the IC50 (Vero [27]) was 55 µg/mL (≈ 198 µM). It also gave an IC50 (Vero [28]) of 36 µg/mL (≈ 130 µM), an IC50 (Vero [29]) of over 400 µg/mL and an IC50 (Vero [30]) of over 190 µg/mL. The IC50 (Vero [31]) was 100 µg/mL (≈ 361 µM), the IC50 (HeLa [32]) was over 400 µg/mL and the IC50 (MDCK [33]) was over 100 µg/mL. It also gave an IC50 (MDCK [34]) of over 100 µg/mL.
